{"source": "paper PMC9112332", "about": "“Structure-Based Design of α-Substituted Mercaptoacetamides as Inhibitors of the Virulence Factor LasB from Pseudomonas aeruginosa” (ACS Infectious Diseases, 2022)", "key": {"LasB [1]": {"target": "T1, LasB (Pseudomonas aeruginosa, UniProt Q02RJ6)", "T1 sequence (Q02RJ6 198-498)": "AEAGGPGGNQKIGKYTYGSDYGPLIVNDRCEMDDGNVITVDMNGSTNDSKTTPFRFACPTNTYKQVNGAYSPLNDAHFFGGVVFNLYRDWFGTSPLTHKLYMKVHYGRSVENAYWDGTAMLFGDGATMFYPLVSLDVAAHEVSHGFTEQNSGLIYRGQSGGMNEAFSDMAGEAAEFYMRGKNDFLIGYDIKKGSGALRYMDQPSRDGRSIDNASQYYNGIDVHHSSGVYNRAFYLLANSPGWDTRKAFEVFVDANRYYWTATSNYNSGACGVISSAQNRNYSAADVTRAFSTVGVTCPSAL", "conditions": "Figure 1; read-out: IC50 (reported LasB inhibitors, Figure 1); cited from earlier work"}, "ColH-PD": {"target": "ColH-PD (Hathewaya histolytica, UniProt Q46085)", "sequence (Q46085 331-721 limits assumed)": "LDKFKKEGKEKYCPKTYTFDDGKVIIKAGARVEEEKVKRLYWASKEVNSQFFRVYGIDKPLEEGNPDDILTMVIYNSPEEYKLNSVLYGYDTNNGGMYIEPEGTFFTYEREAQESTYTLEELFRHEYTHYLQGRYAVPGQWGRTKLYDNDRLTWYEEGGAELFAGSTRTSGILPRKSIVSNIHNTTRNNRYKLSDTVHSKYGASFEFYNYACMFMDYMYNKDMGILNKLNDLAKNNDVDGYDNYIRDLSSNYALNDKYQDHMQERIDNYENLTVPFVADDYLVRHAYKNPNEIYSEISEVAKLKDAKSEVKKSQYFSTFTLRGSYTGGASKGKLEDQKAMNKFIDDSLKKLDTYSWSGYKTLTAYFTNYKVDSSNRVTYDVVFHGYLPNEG", "assay": "biochemical", "parameters": "species or system C. histolyticum"}, "P. aeruginosa PA14": {"test_system": "P. aeruginosa PA14", "assay": "Antibacterial activity (MIC) assay", "type": "cell-based, Pseudomonas aeruginosa"}, "MMP-1": {"target": "T2, MMP-1 (Homo sapiens, UniProt P03956)", "T2 sequence (P03956 100-469)": "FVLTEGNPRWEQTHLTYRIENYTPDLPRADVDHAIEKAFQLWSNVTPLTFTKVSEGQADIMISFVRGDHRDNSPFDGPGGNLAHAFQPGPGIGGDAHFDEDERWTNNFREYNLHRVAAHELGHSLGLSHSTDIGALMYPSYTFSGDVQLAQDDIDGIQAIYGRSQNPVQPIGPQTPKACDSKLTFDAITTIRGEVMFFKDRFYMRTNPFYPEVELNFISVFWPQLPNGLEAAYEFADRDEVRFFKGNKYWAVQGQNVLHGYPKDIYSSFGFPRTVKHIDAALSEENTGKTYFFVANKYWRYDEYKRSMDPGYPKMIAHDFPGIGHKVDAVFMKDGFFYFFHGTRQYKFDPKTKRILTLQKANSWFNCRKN", "assay": "Human off-target inhibition assay, MMP-1", "type": "biochemical"}, "MMP-2": {"target": "T3, MMP-2 (Homo sapiens, UniProt P08253)", "T3 sequence (P08253 110-660)": "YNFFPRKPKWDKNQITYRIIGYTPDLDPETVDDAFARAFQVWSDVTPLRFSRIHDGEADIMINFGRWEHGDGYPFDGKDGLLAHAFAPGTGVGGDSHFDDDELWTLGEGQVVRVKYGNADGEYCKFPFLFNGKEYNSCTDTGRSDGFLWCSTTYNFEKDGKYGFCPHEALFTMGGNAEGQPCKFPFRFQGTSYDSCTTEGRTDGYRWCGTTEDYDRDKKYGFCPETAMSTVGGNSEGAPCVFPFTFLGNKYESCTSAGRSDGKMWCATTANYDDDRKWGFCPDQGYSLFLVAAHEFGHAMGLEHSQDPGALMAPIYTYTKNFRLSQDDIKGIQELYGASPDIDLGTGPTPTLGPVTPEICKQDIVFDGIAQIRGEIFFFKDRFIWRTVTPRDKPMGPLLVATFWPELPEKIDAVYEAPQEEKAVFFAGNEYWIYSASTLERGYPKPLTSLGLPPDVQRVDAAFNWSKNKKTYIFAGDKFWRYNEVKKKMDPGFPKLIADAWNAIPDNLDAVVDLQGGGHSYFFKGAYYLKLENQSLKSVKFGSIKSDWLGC", "assay": "Human off-target inhibition assay, MMP-2", "type": "biochemical"}, "MMP-3": {"target": "MMP-3 (Homo sapiens, UniProt P08254)", "sequence (P08254 100-477)": "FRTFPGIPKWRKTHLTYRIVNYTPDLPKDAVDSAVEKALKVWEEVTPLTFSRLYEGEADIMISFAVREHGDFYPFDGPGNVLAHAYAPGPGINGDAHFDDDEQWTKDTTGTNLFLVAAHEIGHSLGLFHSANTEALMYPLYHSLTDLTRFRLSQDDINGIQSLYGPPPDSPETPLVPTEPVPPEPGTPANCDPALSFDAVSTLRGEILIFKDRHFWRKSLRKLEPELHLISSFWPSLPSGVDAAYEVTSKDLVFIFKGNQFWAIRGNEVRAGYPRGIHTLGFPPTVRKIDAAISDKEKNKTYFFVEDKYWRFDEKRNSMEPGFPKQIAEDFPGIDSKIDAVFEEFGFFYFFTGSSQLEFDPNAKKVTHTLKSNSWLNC", "assay": "Human off-target inhibition assay, MMP-3", "type": "biochemical"}, "MMP-7": {"target": "T4, MMP-7 (Homo sapiens, UniProt P09237)", "T4 sequence (P09237 95-267)": "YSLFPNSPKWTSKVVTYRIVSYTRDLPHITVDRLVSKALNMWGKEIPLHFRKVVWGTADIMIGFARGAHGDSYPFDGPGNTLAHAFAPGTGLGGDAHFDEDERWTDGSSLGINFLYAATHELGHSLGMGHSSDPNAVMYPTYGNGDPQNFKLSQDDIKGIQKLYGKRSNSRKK", "assay": "Human off-target inhibition assay, MMP-7", "type": "biochemical"}, "MMP-8": {"target": "MMP-8 (Homo sapiens, UniProt P22894)", "sequence (P22894 101-467)": "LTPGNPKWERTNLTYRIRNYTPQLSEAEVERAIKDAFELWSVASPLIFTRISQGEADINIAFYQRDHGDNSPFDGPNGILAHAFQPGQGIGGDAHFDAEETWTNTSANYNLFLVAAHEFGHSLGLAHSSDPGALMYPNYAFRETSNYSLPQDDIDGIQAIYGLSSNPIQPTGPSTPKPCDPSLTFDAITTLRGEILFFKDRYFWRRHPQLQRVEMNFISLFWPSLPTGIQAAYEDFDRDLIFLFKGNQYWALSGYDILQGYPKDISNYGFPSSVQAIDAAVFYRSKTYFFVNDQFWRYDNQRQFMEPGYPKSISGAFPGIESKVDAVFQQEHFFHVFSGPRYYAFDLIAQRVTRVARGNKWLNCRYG", "assay": "Human off-target inhibition assay, MMP-8", "type": "biochemical"}, "MMP-14": {"target": "MMP-14 (Homo sapiens, UniProt P50281)", "assay": "Human off-target inhibition assay, MMP-14", "type": "biochemical"}, "ADAM17": {"target": "ADAM17 (Homo sapiens, UniProt P78536)", "sequence (P78536 215-824)": "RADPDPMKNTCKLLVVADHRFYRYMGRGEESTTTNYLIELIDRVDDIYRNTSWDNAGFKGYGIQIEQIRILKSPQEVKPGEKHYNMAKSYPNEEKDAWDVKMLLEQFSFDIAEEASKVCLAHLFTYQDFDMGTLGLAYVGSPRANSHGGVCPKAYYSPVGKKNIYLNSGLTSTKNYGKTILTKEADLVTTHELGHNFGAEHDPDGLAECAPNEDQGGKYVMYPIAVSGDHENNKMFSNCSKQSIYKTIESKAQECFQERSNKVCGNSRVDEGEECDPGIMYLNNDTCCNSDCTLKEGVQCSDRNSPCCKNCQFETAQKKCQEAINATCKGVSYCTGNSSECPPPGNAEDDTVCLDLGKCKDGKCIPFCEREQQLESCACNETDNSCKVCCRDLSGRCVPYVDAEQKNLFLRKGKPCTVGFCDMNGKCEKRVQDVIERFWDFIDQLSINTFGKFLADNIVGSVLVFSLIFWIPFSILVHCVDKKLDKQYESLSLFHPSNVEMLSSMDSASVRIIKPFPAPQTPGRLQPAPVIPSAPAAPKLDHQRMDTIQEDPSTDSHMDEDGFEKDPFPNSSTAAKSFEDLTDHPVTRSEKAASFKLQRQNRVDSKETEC", "assay": "Human off-target inhibition assay, ADAM17 (TACE)", "type": "biochemical"}, "HDAC-3": {"target": "HDAC-3 (Homo sapiens, UniProt O15379)", "sequence (O15379 whole entry)": "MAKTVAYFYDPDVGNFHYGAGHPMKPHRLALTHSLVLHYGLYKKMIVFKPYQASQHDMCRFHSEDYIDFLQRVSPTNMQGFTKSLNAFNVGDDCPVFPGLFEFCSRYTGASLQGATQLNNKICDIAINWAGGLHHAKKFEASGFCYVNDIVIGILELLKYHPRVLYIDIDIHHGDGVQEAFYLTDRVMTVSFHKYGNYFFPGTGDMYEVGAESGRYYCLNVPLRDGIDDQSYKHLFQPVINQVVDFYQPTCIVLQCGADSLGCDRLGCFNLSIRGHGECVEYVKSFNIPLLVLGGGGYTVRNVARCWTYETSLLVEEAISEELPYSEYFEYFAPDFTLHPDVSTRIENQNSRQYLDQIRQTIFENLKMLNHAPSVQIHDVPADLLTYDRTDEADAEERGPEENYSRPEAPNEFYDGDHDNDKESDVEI", "sequence (Q9Y618 395-489 partner limits assumed)": "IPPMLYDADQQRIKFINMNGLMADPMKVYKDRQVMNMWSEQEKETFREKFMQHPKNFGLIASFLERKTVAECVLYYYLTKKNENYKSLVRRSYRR", "assay": "Human off-target inhibition assay, HDAC-3", "type": "biochemical", "procedure": "(§1) Table 3 Activities of Four LasB Inhibitors against the Selected MMPs (% of inhibition at 100 μM) and Further Human Off-Targets ^a | column: 3; 12; 13; 23"}, "HDAC-8": {"target": "T5, HDAC-8 (Homo sapiens, UniProt Q9BY41)", "T5 sequence (Q9BY41 1-377)": "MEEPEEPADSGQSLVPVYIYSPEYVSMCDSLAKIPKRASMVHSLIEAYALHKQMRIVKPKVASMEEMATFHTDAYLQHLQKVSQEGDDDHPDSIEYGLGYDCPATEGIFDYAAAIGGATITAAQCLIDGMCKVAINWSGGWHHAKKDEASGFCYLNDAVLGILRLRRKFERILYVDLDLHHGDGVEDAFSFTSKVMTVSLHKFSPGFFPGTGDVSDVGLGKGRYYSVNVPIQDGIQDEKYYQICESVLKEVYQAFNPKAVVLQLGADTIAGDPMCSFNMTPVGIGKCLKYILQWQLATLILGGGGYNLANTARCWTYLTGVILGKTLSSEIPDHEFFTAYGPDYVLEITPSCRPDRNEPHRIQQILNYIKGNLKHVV", "assay": "Human off-target inhibition assay, HDAC-8", "type": "biochemical", "procedure": "as §1"}, "[2]": {"assay": "Cytotoxicity assay, HepG2", "type": "cell-based", "conditions": "HepG2 cells; human hepatoma cell line"}, "[3]": {"assay": "Cytotoxicity assay, HEK293", "type": "cell-based", "conditions": "HEK293 cells; human embryonic kidney cells"}, "Cytotoxicity assay, A549": {"assay": "Cytotoxicity assay, A549", "type": "cell-based", "conditions": "A549 cells; adenocarcinomic human alveolar basal epithelial cells"}, "zebrafish embryos": {"test_system": "zebrafish embryos", "assay": "Zebrafish embryo toxicity (maximum tolerated concentration) assay", "type": "in vivo"}, "[4]": {"test_system": "A549 cells treated with ΔlasB PA14 supernatant", "type": "cell-based, human", "conditions": "15% (v/v) ΔlasB PA14 supernatant, MTT"}, "G. mellonella larvae": {"test_system": "G. mellonella larvae", "assay": "In vivo Galleria mellonella virulence assay", "conditions": "compound with wt PA14 supernatant, after 6 days"}, "[5]": {"test_system": "A549 cells treated with wt PA14 supernatant", "conditions": "15% (v/v) wt PA14 supernatant, MTT"}, "[6]": {"test_system": "A549 cells treated with wt PA14 supernatant", "assay": "cells", "conditions": "Homo sapiens, A549, 24 h, read-out: increase in viability of A549 cells"}, "LasB [7]": {"target": "T1, LasB", "assay": "LasB inhibition assay (FRET-based, in vitro)", "conditions": "for activity of pure LasB: 0.3 nM pure LasB"}}, "note": "Like-named read-outs stand apart in the source and are kept apart here.", "data": [{"smiles": "O=C(O)CC1(C(=O)NCc2nc3ccccc3s2)Cc2ccccc2C1", "note": "[Compound 1]", "values": [{"measurement": "IC50", "setting": "LasB [1]", "value": 0.159, "unit": "µM"}]}, {"smiles": "O=C(Nc1nc2ccccc2s1)C(S)Cc1ccccc1", "note": "(stereo not shown) [Compound 23, N-(Benzo[d]thiazol-2-yl)-2-mercapto-3-phenylpropanamide]", "values": [{"measurement": "Ki", "setting": "ColH-PD", "value": "0.1 ± 0.01", "unit": "µM"}, {"measurement": "MIC", "setting": "P. aeruginosa PA14; Pseudomonas aeruginosa, P. aeruginosa PA14", "value": "> 100", "unit": "µM"}, {"measurement": "reduction of bacterial growth", "setting": "P. aeruginosa PA14; at 100 μM", "value": "less than 10%"}, {"measurement": "inhibition at 100 µM", "setting": "MMP-1", "value": "< 10", "unit": "%"}, {"measurement": "inhibition at 100 µM", "setting": "MMP-2", "value": "< 10", "unit": "%"}, {"measurement": "inhibition at 100 µM", "setting": "MMP-3", "value": "< 10", "unit": "%"}, {"measurement": "inhibition at 100 µM", "setting": "MMP-7", "value": "< 10", "unit": "%"}, {"measurement": "inhibition at 100 µM", "setting": "MMP-8", "value": "< 10", "unit": "%"}, {"measurement": "inhibition at 100 µM", "setting": "MMP-14", "value": "< 10", "unit": "%"}, {"measurement": "IC50", "setting": "ADAM17", "value": "10.4 ± 0.2", "unit": "µM"}, {"measurement": "IC50", "setting": "HDAC-3", "value": "> 100", "unit": "µM"}, {"measurement": "IC50", "setting": "HDAC-8", "value": "> 100", "unit": "µM"}, {"measurement": "IC50", "setting": "[2]", "value": "> 100", "unit": "µM"}, {"measurement": "IC50", "setting": "[3]", "value": "> 100", "unit": "µM"}, {"measurement": "IC50", "setting": "Cytotoxicity assay, A549", "value": "> 100", "unit": "µM"}, {"measurement": "Survival rate %", "setting": "zebrafish embryos; 2 µM", "value": 100, "unit": "%"}, {"measurement": "Survival rate %", "setting": "zebrafish embryos; 30 µM", "value": 70, "unit": "%"}, {"measurement": "toxicity (larvae with toxicity signs)", "setting": "zebrafish embryos; 30 µM, Table S2", "value": 30, "unit": "%"}, {"measurement": "embryo observation", "setting": "zebrafish embryos; 50 µM, 2 dpf", "value": "imp. dev."}, {"measurement": "embryo observation", "setting": "zebrafish embryos; 50 µM, 3 dpf", "value": 5, "unit": "imp. dev."}, {"measurement": "embryo observation", "setting": "zebrafish embryos; 50 µM, 4 dpf", "value": 5, "unit": "imp. dev."}, {"measurement": "embryo observation", "setting": "zebrafish embryos; 50 µM, 5 dpf", "value": 5, "unit": "imp. dev."}, {"measurement": "Survival rate %", "setting": "zebrafish embryos; 100 µM", "value": 0, "unit": "%"}, {"measurement": "embryo observation", "setting": "zebrafish embryos; 100 µM, 2 dpf", "value": "imp. dev."}, {"measurement": "embryo observation", "setting": "zebrafish embryos; 100 µM, 3 dpf", "value": 5, "unit": "imp. dev."}, {"measurement": "embryo observation", "setting": "zebrafish embryos; 100 µM, 4 dpf", "value": 5, "unit": "imp. dev."}, {"measurement": "embryo observation", "setting": "zebrafish embryos; 100 µM, 5 dpf", "value": 5, "unit": "imp. dev."}, {"measurement": "maximum tolerated concentration (MTC)", "setting": "zebrafish embryos; zebrafish embryos, until 120 hpf", "value": "≤ 30", "unit": "µM"}, {"measurement": "effect on A549 cells treated with ΔlasB PA14 supernatant (in words)", "setting": "[4]", "value": "no effect"}, {"measurement": "survival of larvae", "setting": "G. mellonella larvae", "value": "70 ± 5", "unit": "%"}, {"measurement": "effect on viability of A549 cells treated with wt PA14 supernatant (in words)", "setting": "[5]", "value": "Dose-dependent effect"}, {"measurement": "viability at 50 µM", "setting": "[6]", "value": "80 ± 15", "unit": "%"}, {"measurement": "IC50", "setting": "LasB [7]", "value": "0.7 ± 0.1", "unit": "µM"}, {"measurement": "ligand efficiency (LE)", "setting": "LasB [7]; calculated from LasB activity", "value": 0.48}, {"measurement": "lipophilic ligand efficiency (LLE)", "setting": "LasB [7]; calculated from LasB activity", "value": 3.21}]}, {"smiles": "O=C(CC(=O)Nc1ccc(Cl)c(Cl)c1)NO", "note": "[Compound 2]", "values": [{"measurement": "IC50", "setting": "LasB [1]", "value": 17.4, "unit": "µM"}]}, {"smiles": "Cl.O=C(O)CCP(CCC(=O)O)CCC(=O)O", "note": "[TCEP, Tris(2-carboxyethyl)phosphine hydrochloride]", "values": [{"measurement": "viability of A549 cells", "setting": "A549 cells", "value": "no effect on cell viability"}, {"measurement": "activity of pure LasB", "setting": "LasB [7]; 0.6 mM TCEP and lower", "value": "no inhibition"}, {"measurement": "activity of pure LasB", "setting": "LasB [7]; 5 mM and […] TCEP", "value": "completely lost"}]}]}
